ChEMBL document CHEMBL3885881, “DrugMatrix”

Species: Rattus norvegicus
Experiment: DrugMatrix - Regimen: Daily Repeat
Type: toxicity, organism-based, Sprague-Dawley
Design: regimen Daily Repeat, gender Male, age 6-8 weeks
Settings: in vivo, po, route oral GAVAGE, vehicle .5 % CMC; for ABSOLUTE BASOPHIL / ABSOLUTE EOSINOPHIL / ABSOLUTE LYMPHOCYTE / ABSOLUTE MONOCYTE / ABSOLUTE SEGMENTED NEUTROPHIL / BASOPHIL / EOSINOPHIL / ERYTHROCYTE COUNT / HEMATOCRIT / HEMOGLOBIN / LEUKOCYTE COUNT / LYMPHOCYTE / MEAN CORPUSCULAR HEMOGLOBIN / MEAN CORPUSCULAR HEMOGLOBIN CONCENTRATION / MEAN CORPUSCULAR VOLUME / MONOCYTE / NEUTROPHIL / NUCLEATED RED BLOOD CELLS / PLATELET COUNT: tissue Blood; for ALANINE AMINOTRANSFERASE / ALBUMIN / ALKALINE PHOSPHATASE / ASPARTATE AMINOTRANSFERASE / BLOOD UREA NITROGEN / CARBON DIOXIDE / CHLORIDE / CHOLESTEROL / CREATINE PHOSPHOKINASE / CREATININE / GLUCOSE / LACTATE DEHYDROGENASE / LIPASE / PHOSPHORUS / POTASSIUM / SODIUM / TOTAL BILIRUBIN / TOTAL PROTEIN / URIC ACID: tissue Plasma
[1] = 20 mg/kg, 72 h, dose level Low, time 3 day
[2] = 20 mg/kg, 120 h, dose level Low, time 5 day
[3] = 600 mg/kg, 72 h, dose level High, time 3 day
[4] = 600 mg/kg, 120 h, dose level High, time 5 day

Compound: CC(C)CN(C[C@@H](O)[C@H](Cc1ccccc1)NC(=O)O[C@H]1CCOC1)S(=O)(=O)c1ccc(N)cc1
- ABSOLUTE BASOPHIL [1]: 0 CELLS/uL
- ABSOLUTE EOSINOPHIL [1]: 148.67 CELLS/uL
- ABSOLUTE LYMPHOCYTE [1]: 12756.67 CELLS/uL
- ABSOLUTE MONOCYTE [1]: 107.67 CELLS/uL
- ABSOLUTE SEGMENTED NEUTROPHIL [1]: 887 CELLS/uL
- BASOPHIL [1]: 0%
- EOSINOPHIL [1]: 1%
- ERYTHROCYTE COUNT [1]: 5.52 x10E6/uL
- HEMATOCRIT [1]: 35.2%
- HEMOGLOBIN [1]: 13.3 G/DL
- LEUKOCYTE COUNT [1]: 13.9 x10E3/uL
- LYMPHOCYTE [1]: 91.67%
- MEAN CORPUSCULAR HEMOGLOBIN [1]: 24.17 pg
- MEAN CORPUSCULAR HEMOGLOBIN CONCENTRATION [1]: 37.8 G/DL
- MEAN CORPUSCULAR VOLUME [1]: 63.87 fL
- MONOCYTE [1]: 0.67%
- NEUTROPHIL [1]: 6.67%
- NUCLEATED RED BLOOD CELLS [1]: 0 /100WBC
- PLATELET COUNT [1]: 1248.33 x10E3/uL
- ALANINE AMINOTRANSFERASE [1]: 50 u/L
- ALBUMIN [1]: 4.23 G/DL
- ALKALINE PHOSPHATASE [1]: 362 u/L
- ASPARTATE AMINOTRANSFERASE [1]: 76.33 u/L
- BLOOD UREA NITROGEN [1]: 16.33 mg/dL
- CARBON DIOXIDE [1]: 26 mmol/L
- CHLORIDE [1]: 102 MEQ/L
- CHOLESTEROL [1]: 67 mg/dL
- CREATINE PHOSPHOKINASE [1]: 172.67 u/L
- CREATININE [1]: 0.21 mg/dL
- GLUCOSE [1]: 169.67 mg/dL
- LACTATE DEHYDROGENASE [1]: 136.67 u/L
- LIPASE [1]: 8 u/L
- PHOSPHORUS [1]: 12.83 mg/dL
- POTASSIUM [1]: 6.23 MEQ/L
- SODIUM [1]: 144.7 MEQ/L
- TOTAL BILIRUBIN [1]: 0.17 mg/dL
- TOTAL PROTEIN [1]: 6.07 G/DL
- URIC ACID [1]: 1.83 mg/dL
- ABSOLUTE BASOPHIL [2]: 0 CELLS/uL
- ABSOLUTE EOSINOPHIL [2]: 74 CELLS/uL
- ABSOLUTE LYMPHOCYTE [2]: 7729 CELLS/uL
- ABSOLUTE MONOCYTE [2]: 39.33 CELLS/uL
- ABSOLUTE SEGMENTED NEUTROPHIL [2]: 524.33 CELLS/uL
- BASOPHIL [2]: 0%
- EOSINOPHIL [2]: 1%
- ERYTHROCYTE COUNT [2]: 5.73 x10E6/uL
- HEMATOCRIT [2]: 35.57%
- HEMOGLOBIN [2]: 13.37 G/DL
- LEUKOCYTE COUNT [2]: 8.37 x10E3/uL
- LYMPHOCYTE [2]: 92%
- MEAN CORPUSCULAR HEMOGLOBIN [2]: 23.33 pg
- MEAN CORPUSCULAR HEMOGLOBIN CONCENTRATION [2]: 37.63 G/DL
- MEAN CORPUSCULAR VOLUME [2]: 62.13 fL
- MONOCYTE [2]: 0.33%
- NEUTROPHIL [2]: 6.67%
- NUCLEATED RED BLOOD CELLS [2]: 0 /100WBC
- PLATELET COUNT [2]: 1179.33 x10E3/uL
- ALANINE AMINOTRANSFERASE [2]: 54.33 u/L
- ALBUMIN [2]: 4.43 G/DL
- ALKALINE PHOSPHATASE [2]: 421.33 u/L
- ASPARTATE AMINOTRANSFERASE [2]: 83 u/L
- BLOOD UREA NITROGEN [2]: 14.33 mg/dL
- CARBON DIOXIDE [2]: 28.33 mmol/L
- CHLORIDE [2]: 101 MEQ/L
- CHOLESTEROL [2]: 68 mg/dL
- CREATINE PHOSPHOKINASE [2]: 229.67 u/L
- CREATININE [2]: 0.2 mg/dL
- GLUCOSE [2]: 141 mg/dL
- LACTATE DEHYDROGENASE [2]: 108 u/L
- LIPASE [2]: 8.67 u/L
- PHOSPHORUS [2]: 12.47 mg/dL
- POTASSIUM [2]: 6.58 MEQ/L
- SODIUM [2]: 146.5 MEQ/L
- TOTAL BILIRUBIN [2]: 0.2 mg/dL
- TOTAL PROTEIN [2]: 6.3 G/DL
- URIC ACID [2]: 1.3 mg/dL
- ABSOLUTE BASOPHIL [3]: 0 CELLS/uL
- ABSOLUTE EOSINOPHIL [3]: 50.33 CELLS/uL
- ABSOLUTE LYMPHOCYTE [3]: 11050.67 CELLS/uL
- ABSOLUTE MONOCYTE [3]: 72.33 CELLS/uL
- ABSOLUTE SEGMENTED NEUTROPHIL [3]: 1093.33 CELLS/uL
- BASOPHIL [3]: 0%
- EOSINOPHIL [3]: 0.33%
- ERYTHROCYTE COUNT [3]: 5.53 x10E6/uL
- HEMATOCRIT [3]: 35.5%
- HEMOGLOBIN [3]: 13.6 G/DL
- LEUKOCYTE COUNT [3]: 12.27 x10E3/uL
- LYMPHOCYTE [3]: 89.67%
- MEAN CORPUSCULAR HEMOGLOBIN [3]: 24.57 pg
- MEAN CORPUSCULAR HEMOGLOBIN CONCENTRATION [3]: 38.27 G/DL
- MEAN CORPUSCULAR VOLUME [3]: 64.1 fL
- MONOCYTE [3]: 0.67%
- NEUTROPHIL [3]: 9.33%
- NUCLEATED RED BLOOD CELLS [3]: 0 /100WBC
- PLATELET COUNT [3]: 1258 x10E3/uL
- ALANINE AMINOTRANSFERASE [3]: 56.67 u/L
- ALBUMIN [3]: 4.33 G/DL
- ALKALINE PHOSPHATASE [3]: 381 u/L
- ASPARTATE AMINOTRANSFERASE [3]: 116.67 u/L
- BLOOD UREA NITROGEN [3]: 16 mg/dL
- CARBON DIOXIDE [3]: 25 mmol/L
- CHLORIDE [3]: 107.33 MEQ/L
- CHOLESTEROL [3]: 69 mg/dL
- CREATINE PHOSPHOKINASE [3]: 1567.67 u/L
- CREATININE [3]: 0.18 mg/dL
- GLUCOSE [3]: 194.33 mg/dL
- LACTATE DEHYDROGENASE [3]: 164.67 u/L
- LIPASE [3]: 8.67 u/L
- PHOSPHORUS [3]: 14.17 mg/dL
- POTASSIUM [3]: 6.64 MEQ/L
- SODIUM [3]: 145.83 MEQ/L
- TOTAL BILIRUBIN [3]: 0.23 mg/dL
- TOTAL PROTEIN [3]: 5.97 G/DL
- URIC ACID [3]: 2.07 mg/dL
- ABSOLUTE BASOPHIL [4]: 0 CELLS/uL
- ABSOLUTE EOSINOPHIL [4]: 292.33 CELLS/uL
- ABSOLUTE LYMPHOCYTE [4]: 15254.33 CELLS/uL
- ABSOLUTE MONOCYTE [4]: 69 CELLS/uL
- ABSOLUTE SEGMENTED NEUTROPHIL [4]: 1517.67 CELLS/uL
- BASOPHIL [4]: 0%
- EOSINOPHIL [4]: 1.67%
- ERYTHROCYTE COUNT [4]: 5.48 x10E6/uL
- HEMATOCRIT [4]: 34.63%
- HEMOGLOBIN [4]: 13.17 G/DL
- LEUKOCYTE COUNT [4]: 17.13 x10E3/uL
- LYMPHOCYTE [4]: 88.67%
- MEAN CORPUSCULAR HEMOGLOBIN [4]: 24.03 pg
- MEAN CORPUSCULAR HEMOGLOBIN CONCENTRATION [4]: 38 G/DL
- MEAN CORPUSCULAR VOLUME [4]: 63.2 fL
- MONOCYTE [4]: 0.33%
- NEUTROPHIL [4]: 9.33%
- NUCLEATED RED BLOOD CELLS [4]: 0 /100WBC
- PLATELET COUNT [4]: 1347.67 x10E3/uL
- ALANINE AMINOTRANSFERASE [4]: 41.67 u/L
- ALBUMIN [4]: 4.2 G/DL
- ALKALINE PHOSPHATASE [4]: 390 u/L
- ASPARTATE AMINOTRANSFERASE [4]: 76.33 u/L
- BLOOD UREA NITROGEN [4]: 15.67 mg/dL
- CARBON DIOXIDE [4]: 27.33 mmol/L
- CHLORIDE [4]: 102.33 MEQ/L
- CHOLESTEROL [4]: 58.67 mg/dL
- CREATINE PHOSPHOKINASE [4]: 202 u/L
- CREATININE [4]: 0.21 mg/dL
- GLUCOSE [4]: 161.33 mg/dL
- LACTATE DEHYDROGENASE [4]: 95.67 u/L
- LIPASE [4]: 8.33 u/L
- PHOSPHORUS [4]: 12.93 mg/dL
- POTASSIUM [4]: 6.23 MEQ/L
- SODIUM [4]: 144.37 MEQ/L
- TOTAL BILIRUBIN [4]: 0.17 mg/dL
- TOTAL PROTEIN [4]: 6 G/DL
- URIC ACID [4]: 1.77 mg/dL
